Article PMC3743129 (ACS medicinal chemistry letters, 2013)
pEC50: −log10 of the molar value. Marks after values point to notes of the source that are not given here.

Legend:
[1] = test system: a number of different viruses; details: cited from earlier work
[2] = assay type: in vitro ADME
in vitro = in vitro ADME
MeV-Edm = experiment: microbe, parasite or virus in culture; assay type: cell-based; details: Measles morbillivirus, read-out: EC50 against MeV strain Edmonston

Structure (SMILES): COc1ccc(-n2c(SC(C)C(=O)Nc3ccc(C)cc3Cl)nc3ccccc32)cc1 (stereo not drawn) [Compound 1]
- activity against a number of different viruses in cell culture [1]: low nanomolar activity

Structure (SMILES): O=S(=O)(Cc1ccccc1)c1nc(-c2ccccc2)c(-c2ccccc2)[nH]1 [Compound 13a]
- S9 stability T1/2 hamster [2]: <2.5 min

Structure (SMILES): Cn1c(S(=O)(=O)Cc2ccccc2)nc(-c2ccccc2)c1-c1ccccc1 [Compound 13b]
- S9 stability T1/2 hamster [2]: <2.5^b min
- metabolite peak in LC-MS, % of total area (in vitro; human, 20 min, 100 μM): 91%
- half-life (in vitro; human, s9): 2 to 12 min
- S9 stability T1/2 human (in vitro; s9): 2-12^b min

Structure (SMILES): CN(Cc1nc(-c2ccccc2)c(-c2ccccc2)n1C)c1ccccc1 [Compound 28a]
- pEC50 (MeV-Edm): 6.09

Structure (SMILES): Cn1c(S(=O)(=O)Cc2ccc(F)cc2)nc(-c2ccc(F)cc2)c1-c1ccc(F)cc1 [Compound 13c]
- S9 stability T1/2 hamster [2]: <2.5^b min

Structure (SMILES): C#CCn1c([S+](=O)([O-])Cc2ccc(F)cc2)nc(-c2ccccc2)c1-c1ccccc1 [Compound 3]
- S9 stability T1/2 hamster [2]: <2.5 min
